This is an account of results in US20250171516A1, “PEPTIDE ACIDS AS A GLP1R AGONIST AND ANTIBODY-DRUG CONJUGATES THEREOF” (Regeneron Pharmaceuticals, Inc., priority 2023, published 2025).

Non-standard residues stand in square brackets, D forms with d. No end group written: not given here. AA10 = not defined here; AA1 = not defined here; AA2 = not defined here; AA6 = not defined here; AA9 = not defined here

A short description of data set [1]: Metabolite study in human liver S9 (high resolution LC-MS). In kind it is in vitro ADME. As to the method: Metabolite studies were conducted using Q-M3190 and Q-6009 (Q is Glutamine).
Liver S9 is the supernatant obtained by grinding and centrifuging the liver cells. The enzymes content is lower compared to Hepatocytes. It mainly contains CYP enzymes and some biphasic enzymes (but no biphasic coenzyme), so additional coenzyme (NADPH and UDPGA, etc.) is needed to mediate the biphasic reaction.

Data set [2] deals with T1, GLP-1R (Homo sapiens, UniProt P43220). Put plainly: GLP-1R cAMP assay of peptides (Tables 10, 14, 15). In kind it is cell-based.
T1 sequence (P43220 24-463): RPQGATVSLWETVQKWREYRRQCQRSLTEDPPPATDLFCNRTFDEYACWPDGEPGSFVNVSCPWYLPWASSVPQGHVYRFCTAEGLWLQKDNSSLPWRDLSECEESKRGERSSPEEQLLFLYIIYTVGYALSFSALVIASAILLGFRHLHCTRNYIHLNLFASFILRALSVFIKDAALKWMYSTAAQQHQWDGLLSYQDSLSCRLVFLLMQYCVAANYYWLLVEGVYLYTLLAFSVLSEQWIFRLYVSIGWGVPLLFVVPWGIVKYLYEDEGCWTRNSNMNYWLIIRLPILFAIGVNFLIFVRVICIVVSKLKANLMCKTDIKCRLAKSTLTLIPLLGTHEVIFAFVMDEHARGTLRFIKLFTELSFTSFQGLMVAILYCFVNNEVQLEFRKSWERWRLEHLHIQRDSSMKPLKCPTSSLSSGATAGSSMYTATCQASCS
Data set [3] addresses T1, GLP-1R. Put plainly: b-arrestin 2 recruitment enzyme fragment complementation assay in HEK293/b-arrestin2/hGLP1R cells. In kind it is cell-based. Also on record: The full-length human GLP1R (NP_002053.3) with a C-terminus fusion to a small b-gal fragment called enzyme donor or ProLink (PK); host or cells: HEK293/b-arrestin2-EA (HEK293/Barrestin clone 2C6/hGLP1R-Prolink1 high sorted, ACL21687). The text has this: To test the recruitment of b-arrestin 1 and b-arrestin 2 to GLP1R upon receptor activation, two enzyme fragment complementation assays were developed. To generate the assay cell lines, b-arrestin 1 fused to the b-galactosidase (b-gal) reporter fragment called enzyme acceptor (EA) (i.e., b-arrestin1-EA) or b-arrestin 2 fused to the b-gal reporter fragment EA (i.e., b-arrestin2-EA) were transduced into HEK293 cells using PathHunter b-Arrestinl Retroparticles (DiscoverX, #83-OT-TB-N-01) or PathHunter b-Arrestin2 Retroparticles (DiscoverX, #93-1087), respectively. The full-length human GLP1R (NP_002053.3) with a C-terminus fusion to a small b-gal fragment called enzyme donor or ProLink (PK) (i.e., hGLP1R-PK) was then engineered into HEK293/b-arrestinl-EA cells and HEK293/b-arrestin2-EA cells to generate the cell lines referred herein as HEK293/b-arrestin1/hGLP1R and HEK293/b-arrestin2/hGLP1R. Recruitment of b-arrestin 1 or b-arrestin 2 to GLP1R in these reporter cell lines brings both b-gal fragments (EA and PK) into close proximity, leading to reconstitution of a fully functional enzyme capable of hydrolyzing a substrate and generating a chemiluminescent signal.
(§1) For all assays, cells were seeded into 384-well plates (Falcon #353988) at 6,000 cells/well in assay media (Opti-MEM, 1% FBS, 1×Penicillin-Streptomycin) and incubated overnight at 37° C. Serial dilutions of the anti-GLP1R ATLs and non-binding control ATLs were performed in assay media. Serial dilutions of linker-payloads (LPs) were performed in 100% DMSO (ATCC, #4-X-5), followed by 1:100 dilution in assay media. Test articles were added to cells (1:5 dilution) using VIAFLO 384 (Integra) with the last well in each serial dilution series serving as a blank control containing only assay media for ATLs or assay media with 0.2% DMSO for LPs. The blank was plotted as a continuation of the serial dilution.
For b-arrestin 1 and b-arrestin 2 recruitment assays, after a 1-hour incubation at 37° C., PathHunter Detection Reagent (Eurofins DiscoverX, #93-0001) was added to the wells followed by a 1-hour incubation at room temperature. RLUs were measured on EnVision Plate Reader (Perkin Elmer).
(§2) EC50 values for luminescence assays were determined using a four-parameter logistic equation over a 12-point dose response curve (GraphPad Prism).

Data set [4] addresses T1, GLP-1R. In words: CRE-Luc cAMP responsive luciferase reporter assay in HEK293/CRE-Luc/hGLP1R cells. In kind it is cell-based. Further details: engineered to express full-length human GLP1R (GenBank: AAI12127.1) (HEK293/CRE-Luc/hGLP1R); expressed in transfected cells; host or cells: HEK293/CRE-Luc (HEK293/FSC11/pCDNA3.1 + GLP1R, ACL6822). As to conditions: for Emax: HEK293, read-out: Emax (% GLP-1), CRE-dependent reporter activity, HEK293/CRE-Luc/hGLP1R.
Source text: To test the activity of GLP1R agonist linker-payloads (LPs) and anti-GLP1R antibody-tethered ligands (ATLs) of the invention, a cell-based cAMP responsive luciferase reporter assay was developed. To generate the assay cell line, the firefly luciferase gene was placed under the control of four copies of a cAMP response element (4×CRE) located upstream of a minimal promoter and transfected into HEK293 cells and referred to herein as HEK293/CRE-Luc cells. HEK293/CRE-Luc cells were then engineered to express full-length human GLP1R (GenBank: AAI12127.1) (HEK293/CRE-Luc/hGLP1R).
as §1
For the CRE-Luc assay, after a 5-hours incubation at 37° C., luciferase activity was determined by addition of ONE-Glo reagent (Promega, #E6130) followed by measurement of relative light units (RLUs) on EnVision Plate Reader (Perkin Elmer).
as §2

Data set [5] deals with full-length human GLP1R (GenBank: AAI12127.1) expressed on HEK293/CRE-Luc/hGLP1R cells (human, UniProt P43220 24-463). In words: cell-based or functional assay.
For data set [6], the target named is GLP-1R of the cAMP assay of Tables 10, 14 and 15 (human, UniProt P43220 24-463, limits assumed). Put plainly: cell-based or functional assay.
Where [7] appears, read: metabolites of Q-M6009 at 4 hours in human liver S9.
[8] abbreviates: HEK293, read-out: Emax (% GLP-1), b-Arrestin2 recruitment, HEK293/b-arrestin2/hGLP1R.
[9] abbreviates: metabolites of Q-M3190 at 4 hours in human liver S9.

`C[C@@H](O)[C@H](NC(=O)CNC(=O)[C@H](Cc1nn[nH]n1)NC(=O)C(C)(C)C(=O)NCCc1cnc[nH]1)C(=O)N[C@@](C)(Cc1ccccc1F)C(=O)N[C@H](C(=O)N[C@@H](CO)C(=O)N[C@@H](CC(=O)O)C(=O)O)[C@@H](C)O` [AA10-AA(-AA8-AA7-AA6-AA5-AA4-AA3]: in data set [1] (setting [7]), the “Relative Abundance (% Total)” value came to 0.21 % Total.
For `CCc1cc(OCCCCn2cc(COCCOCCOCCOCCOCCOCCOCCOCCN)nn2)ccc1-c1ccc(C[C@H](NC(=O)[C@H](CC(=O)O)NC(=O)[C@H](CO)NC(=O)[C@@H](NC(=O)[C@](C)(Cc2ccccc2F)NC(=O)[C@@H](NC(=O)CNC(=O)[C@H](Cc2nn[nH]n2)NC(=O)C(C)(C)C(=O)NCCc2cnc[nH]2)[C@@H](C)O)[C@@H](C)O)C(=O)N[C@@H](CCCc2cc(C)cc(C)c2)C(N)=O)cc1` [M3190], the EC50 at GLP-1R [2] (Table 14, peptide amides, read-out: cAMP EC50) amounted to 0.318 nM; on GLP-1R [3] (HEK293/b-arrestin2/hGLP1R cells, read-out: b-arrestin 2 recruitment EC50), 3.51e-08 M; on GLP-1R [4] (HEK293/CRE-Luc/hGLP1R cells, independent experiments A, B, C, read-out: EC50 (M), CRE-dependent reporter activity, HEK293/CRE-Luc/hGLP1R), 5.76e-10 M; on GLP-1R [4] (HEK293/CRE-Luc/hGLP1R cells, read-out: CRE-dependent luciferase reporter activity EC50) it was 5.76e-10 M. Also, the Emax is 128% at GLP-1R [3] (setting [8]); 128% on GLP-1R [3] (read-out: b-arrestin 2 recruitment Emax relative to GLP-1, HEK293/b-arrestin2/hGLP1R cells); 96.3% on GLP-1R [4]. Besides, the “Relative Abundance (% Total)” value in data set [1] (setting [9]) was determined as 2.76 % Total.
Consider `CCc1cc(OCCCCn2cc(COCCOCCOCCOCCOCCOCCOCCOCCNC(=O)CCC(N)C(=O)O)nn2)ccc1-c1ccc(C[C@H](NC(=O)[C@H](CC(=O)O)NC(=O)[C@H](CO)NC(=O)[C@@H](NC(=O)C(C)(Cc2ccccc2F)NC(=O)[C@@H](NC(=O)CNC(=O)[C@H](Cc2nn[nH]n2)NC(=O)C(C)(C)C(=O)NCCc2cnc[nH]2)[C@@H](C)O)[C@@H](C)O)C(=O)N[C@@H](CCCc2cc(C)cc(C)c2)C(N)=O)cc1` (stereo partly drawn) [M6067], for which the “Relative Abundance (% Total)” value in data set [1] (setting [9]) is reported as 56.51 % Total.
As for `Cc1cc(OCCOCCOCCOCCOCCOCCOCCOCCN)ccc1-c1ccc(C[C@H](NC(=O)[C@H](CC(=O)O)NC(=O)[C@H](CO)NC(=O)[C@@H](NC(=O)C(C)(Cc2ccccc2F)NC(=O)[C@@H](NC(=O)CNC(=O)[C@H](Cc2nnn[nH]2)NC(=O)C(C)(C)C(=O)NCCc2cnc[nH]2)[C@@H](C)O)[C@@H](C)O)C(=O)O)cc1` (stereo partly drawn) [M6447], the Emax on GLP-1R [3] (setting [8]) was found to be 0.3%; at GLP-1R [4], 9.8%. Besides, the “b-arrestin 2 recruitment (in words)” value on GLP-1R [3] (HEK293/b-arrestin2/hGLP1R cells) is “recruited very low levels of b-arrestin 2”. Moreover, the EC50 is over 1e-06 M at GLP-1R [3] (HEK293/b-arrestin2/hGLP1R cells, independent experiments A, B, read-out: EC50 (M), b-Arrestin2 recruitment, HEK293/b-arrestin2/hGLP1R) and over 1e-06 M at GLP-1R [4]. Besides, the “CRE-dependent luciferase reporter activity (in words)” value at GLP-1R [4] (HEK293/CRE-Luc/hGLP1R cells) is “very weak activator of CRE-dependent luciferase reporter activity”.
`CCc1cc(OCCCCn2cc(COCCOCCOCCOCCOCCOCCOCCOCCNC(=O)CC[C@H](N)C(=O)O)nn2)ccc1-c1ccc(C[C@H](NC(=O)[C@H](CC(=O)O)NC(=O)[C@H](CO)NC(=O)[C@@H](NC(=O)C(C)(Cc2ccccc2F)NC(=O)[C@@H](NC(=O)CNC(=O)[C@H](Cc2nn[nH]n2)NC(=O)C(C)(C)C(=O)NCCc2cnc[nH]2)[C@@H](C)O)[C@@H](C)O)C(=O)N[C@@H](CCCc2cc(C)cc(C)c2)C(=O)O)cc1` (stereo partly drawn) [Q-M6009]: the “GLP-1R CAMP Max” value at GLP-1R [2] (Table 10) turned out to be 106.2%. Moreover, the EC50 on GLP-1R [2] (Table 10, read-out: GLP-1R CAMP EC50) worked out at 3.21 nM. For the same molecule, the “Relative Abundance (% Total)” value in data set [1] (setting [9]) is 38.40 % Total; in data set [1] (setting [7]) it was 79.84 % Total.

B1: M6009 (AA10-AA9-AA8-AA7-AA6-AA5-AA4-AA3-(L)AA2-AA1-OH) (peptide)
peptide: [AA10][AA9]GT[AA6]TSD[AA2](Leu)[AA1]-OH
modifications: reading uncertain; also: also named NH2-PEG8-triazole-P8 acid, printed as M6009 (AA10-AA9-AA8-AA7-AA6-AA5-AA4-AA3-(L)AA2-AA1-OH)
Take B1: in data set [5], the “EC50 (M), CRE-dependent reporter activity, HEK293/CRE-Luc/hGLP1R” value is 4.64e-10 M and the “Emax (% GLP-1), CRE-dependent reporter activity, HEK293/CRE-Luc/hGLP1R” value was 92.1 % GLP-1. For the same molecule, in data set [6], the “GLP-1R CAMP EC50” value was found to be 2.23 nM and the “GLP-1R CAMP Max (%)” value is 140%.
